The text below walks through data of patent publication US20190314285A1, “DOSAGE FORMS COMPRISING ABIRATERONE ACETATE” (Janssen Pharmaceutica NV, priority 2018, published 2019).

Molecules are shown by their SMILES.

Series [1] is described as follows: Plasma concentrations of abiraterone acetate in previous studies. The format is in vivo.
Series [2] relates to circulating androgens (testosterone, DHT, DHEA, androstenedione). Conditions: added to castration, relative to castration alone; cited from earlier work.
The target in a further series is T1, 17,20-lyase (CYP17A1) (Homo sapiens, UniProt P05093).
T1 sequence (P05093 1-508): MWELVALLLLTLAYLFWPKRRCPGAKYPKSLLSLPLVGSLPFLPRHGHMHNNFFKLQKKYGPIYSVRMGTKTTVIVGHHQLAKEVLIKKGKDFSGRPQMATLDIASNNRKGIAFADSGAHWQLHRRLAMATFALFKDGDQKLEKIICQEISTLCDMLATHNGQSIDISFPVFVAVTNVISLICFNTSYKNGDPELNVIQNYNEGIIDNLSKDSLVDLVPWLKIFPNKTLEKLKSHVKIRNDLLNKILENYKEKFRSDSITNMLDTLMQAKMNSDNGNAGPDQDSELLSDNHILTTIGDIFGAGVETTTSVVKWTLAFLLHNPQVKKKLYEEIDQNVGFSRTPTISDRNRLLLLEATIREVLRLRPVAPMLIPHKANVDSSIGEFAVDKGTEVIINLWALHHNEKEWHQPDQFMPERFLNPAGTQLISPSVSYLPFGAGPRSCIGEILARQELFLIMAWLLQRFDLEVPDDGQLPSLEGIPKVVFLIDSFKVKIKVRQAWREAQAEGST
The note with it: cited from earlier work.

A further series deals with mCRPC. The note with it: cited from earlier work.

Turning to `CC(=O)O[C@H]1CC[C@@]2(C)C(=CC[C@@H]3[C@@H]2CC[C@]2(C)C(c4cccnc4)=CC[C@@H]32)C1` [abiraterone acetate, Abiraterone acetate], the “plasma concentrations of abiraterone acetate” value in series [1] is “below the lower limit of quantitation”. In addition, in series [2], the “reduction of DHEA levels” value is on record as 97-98%, the “reduction of DHT levels” value is given as 85% and the “reduction of androstenedione levels” value is recorded as 77-78%.

As a reminder, the IC50 is the midpoint of a concentration-inhibition curve. Regarding `C[C@]12CC[C@H](O)CC1=CC[C@@H]1[C@@H]2CC[C@]2(C)C(c3cccnc3)=CC[C@@H]12` [Abiraterone], at 17,20-lyase (CYP17A1), the IC50 is 15 nM.

As to `O=C(c1cc(Cc2n[nH]c(=O)c3ccccc23)ccc1F)N1CCN(C(=O)C2CC2)CC1` [olaparib], the “biomarker-negative patient tumors with a response” value in the series with mCRPC (2 of 33) is on record as 6%. The “responders who were biomarker-positive for anomalies in DNA-repair genes” value with mCRPC (14 of the 16 patients with a response) is listed as 88%. Besides, in the series on mCRPC (human, in vivo), the “patients with ATM aberrations who had a response” value is given as 4 of 5 and the “patients with BRCA-2 loss who had a response” value is “all 7 patients”.
